Measured values: the supplement of paper PMC11628255, “Interference of metal ions on the bioluminescent signal of firefly, Renilla, and NanoLuc luciferases in high-throughput screening assays” (Frontiers in Chemistry, 2024)

Experiments:
Test in all cases: normalised percent inhibition of luminescence (vs positive and negative controls); higher = stronger inhibition
[1] = tested on: firefly luciferase (FLuc)
Description: (§1)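 Concentration-response (>=11 concentrations) of metal salts on purified FLuc, NLuc or RLuc luminescence in screening (SC) or 100 mM HEPES (H) buffer; salt pre-incubated with enzyme 10 min at RT, read 10 min after substrate. Normalised percent inhibition vs plate positive (PTC-124, isradipine, BTS) and DMSO negative controls; triplicate wells.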

[2] = tested on: Renilla luciferase (RLuc)
Description: as §1

[3] = tested on: NanoLuc luciferase (NLuc)
Description: as §1

O=S(=O)([O-])[O-].[Fe+2] [iron(II) sulfate]
normalised percent inhibition [%]
Details | [1] | [2] | [3]
metal salt concentration 0.0001 mM, 100 mM HEPES buffer | -15.4 | 41.8 | -2.4
metal salt concentration 0.00025 mM, 100 mM HEPES buffer | -21.3 | -25.1 | 0.242
metal salt concentration 0.0005 mM, 100 mM HEPES buffer | -14.6 | -18.6 | 3.64
metal salt concentration 0.001 mM, 100 mM HEPES buffer | 25.9 | -4.06 | 0.251
metal salt concentration 0.002 mM, screening conditions buffer | 1.35 | 2.02 | -6.27
metal salt concentration 0.005 mM, screening conditions buffer | 9.94 | 11 | 5.45
metal salt concentration 0.01 mM, screening conditions buffer | 4.1 | 18.2 | 3.08
metal salt concentration 0.02 mM, screening conditions buffer | 6.54 | 17.5 | 7.25
metal salt concentration 0.025 mM, 100 mM HEPES buffer | 62.5 | 28.6 | 3.97
metal salt concentration 0.05 mM, 100 mM HEPES buffer | 100.1 | 50.9 | 6.24
metal salt concentration 0.05 mM, screening conditions buffer | 7.51 | 3.55 | 11.5
metal salt concentration 0.1 mM, 100 mM HEPES buffer | 99.99 | 85.8 | 19.9
metal salt concentration 0.1 mM, screening conditions buffer | -0.76 | 58.5 | 37.5
metal salt concentration 0.2 mM, screening conditions buffer | 28.7 | 74.4 | 49.5
metal salt concentration 0.5 mM, 100 mM HEPES buffer | 100.2 | 104.9 | 67.9
metal salt concentration 0.5 mM, screening conditions buffer | 94.1 | 93.3 | 81.1
metal salt concentration 1 mM, 100 mM HEPES buffer | 100.3 | 105 | 87.7
metal salt concentration 1 mM, screening conditions buffer | 99.42 | 96 | 138
metal salt concentration 2.5 mM, 100 mM HEPES buffer | 100.2 | 104 | 101
metal salt concentration 2.5 mM, screening conditions buffer | 100.4 | 103.6 | 157.3
metal salt concentration 5 mM, 100 mM HEPES buffer | 100.2 | 107 | 101.93
metal salt concentration 5 mM, screening conditions buffer | 101.2 | 105 | 158.9

[Cl][Fe]([Cl])[Cl] [iron(III) chloride]
normalised percent inhibition [%]
Details | [1] | [2] | [3]
metal salt concentration 0.0001 mM, 100 mM HEPES buffer | -26 | -21.7 | -1.25
metal salt concentration 0.00025 mM, 100 mM HEPES buffer | -29.2 | -24.6 | -4.27
metal salt concentration 0.0005 mM, 100 mM HEPES buffer | -34.9 | -24.2 | -1.65
metal salt concentration 0.001 mM, 100 mM HEPES buffer | -41.7 | -15.5 | -0.138
metal salt concentration 0.002 mM, screening conditions buffer | 14.7 | 0.819 | 0.19
metal salt concentration 0.005 mM, screening conditions buffer | 55.7 | -4.9 | 4.14
metal salt concentration 0.01 mM, screening conditions buffer | 85.4 | -11.6 | 8.93
metal salt concentration 0.02 mM, screening conditions buffer | 95.8 | 0.263 | 14.5
metal salt concentration 0.025 mM, 100 mM HEPES buffer | 99.41 | -1.73 | 5.06
metal salt concentration 0.05 mM, 100 mM HEPES buffer | 99.62 | 36.7 | 15
metal salt concentration 0.05 mM, screening conditions buffer | 82.4 | -5.21 | -3.71
metal salt concentration 0.1 mM, 100 mM HEPES buffer | 100.6 | 61.1 | 35.6
metal salt concentration 0.1 mM, screening conditions buffer | 71.9 | 23.9 | 28.5
metal salt concentration 0.2 mM, screening conditions buffer | 95.4 | 32.6 | 31.9
metal salt concentration 0.5 mM, 100 mM HEPES buffer | 100.3 | 103 | 99.75
metal salt concentration 0.5 mM, screening conditions buffer | 100.2 | 48.5 | 52.9
metal salt concentration 1 mM, 100 mM HEPES buffer | 99.6 | 103 | 101.4
metal salt concentration 1 mM, screening conditions buffer | 100.6 | 75.5 | 89.6
metal salt concentration 2.5 mM, 100 mM HEPES buffer | 100.2 | 105.7 | 101.8
metal salt concentration 2.5 mM, screening conditions buffer | 100.6 | 94.4 | 137.4
metal salt concentration 5 mM, 100 mM HEPES buffer | 99.84 | 106.2 | 102.12
metal salt concentration 5 mM, screening conditions buffer | 100.5 | 105 | 137.49

O=[N+]([O-])[O-].O=[N+]([O-])[O-].[Pb+2] [lead(II) nitrate]
normalised percent inhibition [%]
Details | [1] | [2] | [3]
metal salt concentration 0.0001 mM, 100 mM HEPES buffer | -33.9 | – | –
metal salt concentration 0.00025 mM, 100 mM HEPES buffer | -19.7 | – | –
metal salt concentration 0.0005 mM, 100 mM HEPES buffer | -15.9 | – | –
metal salt concentration 0.001 mM, 100 mM HEPES buffer | -1.03 | – | –
metal salt concentration 0.002 mM, screening conditions buffer | – | -20.9 | -1.02
metal salt concentration 0.005 mM, screening conditions buffer | – | -16.2 | -3.52
metal salt concentration 0.01 mM, screening conditions buffer | – | -2.6 | -2.27
metal salt concentration 0.02 mM, screening conditions buffer | – | -5.61 | -3.22
metal salt concentration 0.025 mM, 100 mM HEPES buffer | 88.9 | – | –
metal salt concentration 0.05 mM, 100 mM HEPES buffer | 94.75 | – | –
metal salt concentration 0.05 mM, screening conditions buffer | – | -11.8 | -4.15
metal salt concentration 0.1 mM, 100 mM HEPES buffer | 96.7 | – | –
metal salt concentration 0.1 mM, screening conditions buffer | – | -5.46 | -7.45
metal salt concentration 0.2 mM, screening conditions buffer | – | -6.41 | 0.428
metal salt concentration 0.5 mM, 100 mM HEPES buffer | 100.1 | – | –
metal salt concentration 0.5 mM, screening conditions buffer | – | -3.99 | 15.7
metal salt concentration 1 mM, 100 mM HEPES buffer | 100.4 | – | –
metal salt concentration 1 mM, screening conditions buffer | – | 2.9 | 11.5
metal salt concentration 2.5 mM, 100 mM HEPES buffer | 100.5 | – | –
metal salt concentration 2.5 mM, screening conditions buffer | – | 53.3 | 52
metal salt concentration 5 mM, 100 mM HEPES buffer | 99.63 | – | –
metal salt concentration 5 mM, screening conditions buffer | – | 94.9 | 129
